Reference: patent publication US20200061062A1, “INHIBITORS OF HUMAN PHOSPHATIDYLINOSITOL 3-KINASE DELTA” (ICOS Corporation, priority 2000, published 2020)
Where two headings read alike, the source gives them in different places.

Legend:
PI3Kα = biological target: T1, PI3Kα (Homo sapiens, UniProt P42336); test: Biochemical assay of PI3K potency and selectivity using 20 μM ATP, Alpha; details: for Alpha/Delta Ratio: ratio of IC50 values, > = hypothetical ratio with 100 μM substituted for the missing IC50; for IC50: read-out: Alpha IC50
T1 construct: His tag (pFastbac HTb vector) (N); FLAG; made in house; host or cells: Sf21 insect cells (baculovirus)
Source text: (§1) Recombinant PI3K heterodimeric complexes consisting of a p110 catalytic subunit and a p85 regulatory subunit were overexpressed using the BAC-TO-BAC® HT baculovirus expression system (GIBCO/BRL), and then purified for use in biochemical assays. The four Class I PI 3-kinases were cloned into baculovirus vectors as follows: […]

PI3Kδ = PI3Kδ (Homo sapiens, UniProt O00329, S253N); test: Biochemical assay of PI3K potency and selectivity using 20 μM ATP, Delta; design: His tag (pFastbac HTb vector) (N); FLAG; made in house; host or cells: Sf21 insect cells (baculovirus); details: 20 μM ATP; read-out: Delta IC50
Source text: as §1

PI3Kβ = biological target: T2, PI3Kβ (Homo sapiens, UniProt P42338); test: Biochemical assay of PI3K potency and selectivity using 20 μM ATP, Beta; details: 20 μM ATP; for Beta/Delta Ratio: ratio of IC50 values, > = hypothetical ratio with 100 μM substituted for the missing IC50; for IC50: read-out: Beta IC50; for remaining activity at 100 µM: read-out: Beta: percent activity remaining at 100 μM, 100 μM compound did not inhibit by at least 50%
T2 construct: His tag (pFastbac HTa vector) (N); FLAG (N); made in house; host or cells: Sf21 insect cells (baculovirus)
Method: Recombinant PI3K heterodimeric complexes consisting of a p110 catalytic subunit and a p85 regulatory subunit were overexpressed using the BAC-TO-BAC® HT baculovirus expression system (GIBCO/BRL), and then purified for use in biochemical assays. The four Class I PI 3-kinases were cloned into baculovirus vectors as follows:
The 3× substrate for the HTS contained 0.6 mM Na2ATP, 0.10 mCi/mL γ-[^32P]ATP (NEN, Pittsburgh, Pa.), 6 μM PIP2/PS liposomes (Avanti Polar Lipids, Inc., […].), in 20 mM HEPES, pH 7.4.

[1] = test system: Murine splenocytes (Balb/c); test: B cell proliferation in response to cell surface IgM stimulation; format: cell-based; details: Mus musculus, Splenocyte; stimulated B cell proliferation; read-out: Mouse BCR Stim (EC50)
Method: In the above experiment, the B cells were stimulated using PANSORBIN®. The effect of D-000 on B cell proliferation response when they were stimulated through their cell surface IgM using anti-IgM antibody also was measured. Murine splenocytes (Balb/c) were plated into 96-well microtiter plates at 2×10^5 cells per well in 10% FBS/RPMI. Appropriate dilutions of test inhibitor in complete medium were added to the cells and the plates were incubated for 30-60 minutes prior to the addition of stimulus. Following the preincubation with test inhibitor an F(ab′)2 preparation of goat antibody specific for the μ-chain of mouse IgM was added to the wells at a final concentration of 25 μg/mL. The plates were incubated at 37° C. for 3 days and 1 μCi of [^3H]-thymidine was added to each well for the final four hours of culture. The plates were harvested onto fiber filters washed and the incorporation of radiolabel was determined using a beta counter (Matrix 96, Packard Instrument Co., Downers Grove, Ill.) and expressed as counts per minute (CPM).
Using the methods described in Examples 3-5, above, compounds of the invention were tested for inhibitory activity and potency in assays of stimulated B and T cell proliferation, neutrophil (PMN) migration, and neutrophil (PMN) elastase release. In Table 4, the values shown are effective concentrations of the compound (EC50; μM). Where no value is given, no assay was performed.

[2] = read-out: percent activity remaining at 100 μM, 20 μM ATP, 100 μM compound did not inhibit by at least 50%

Chain of PI3Kδ (O00329 whole entry S253N): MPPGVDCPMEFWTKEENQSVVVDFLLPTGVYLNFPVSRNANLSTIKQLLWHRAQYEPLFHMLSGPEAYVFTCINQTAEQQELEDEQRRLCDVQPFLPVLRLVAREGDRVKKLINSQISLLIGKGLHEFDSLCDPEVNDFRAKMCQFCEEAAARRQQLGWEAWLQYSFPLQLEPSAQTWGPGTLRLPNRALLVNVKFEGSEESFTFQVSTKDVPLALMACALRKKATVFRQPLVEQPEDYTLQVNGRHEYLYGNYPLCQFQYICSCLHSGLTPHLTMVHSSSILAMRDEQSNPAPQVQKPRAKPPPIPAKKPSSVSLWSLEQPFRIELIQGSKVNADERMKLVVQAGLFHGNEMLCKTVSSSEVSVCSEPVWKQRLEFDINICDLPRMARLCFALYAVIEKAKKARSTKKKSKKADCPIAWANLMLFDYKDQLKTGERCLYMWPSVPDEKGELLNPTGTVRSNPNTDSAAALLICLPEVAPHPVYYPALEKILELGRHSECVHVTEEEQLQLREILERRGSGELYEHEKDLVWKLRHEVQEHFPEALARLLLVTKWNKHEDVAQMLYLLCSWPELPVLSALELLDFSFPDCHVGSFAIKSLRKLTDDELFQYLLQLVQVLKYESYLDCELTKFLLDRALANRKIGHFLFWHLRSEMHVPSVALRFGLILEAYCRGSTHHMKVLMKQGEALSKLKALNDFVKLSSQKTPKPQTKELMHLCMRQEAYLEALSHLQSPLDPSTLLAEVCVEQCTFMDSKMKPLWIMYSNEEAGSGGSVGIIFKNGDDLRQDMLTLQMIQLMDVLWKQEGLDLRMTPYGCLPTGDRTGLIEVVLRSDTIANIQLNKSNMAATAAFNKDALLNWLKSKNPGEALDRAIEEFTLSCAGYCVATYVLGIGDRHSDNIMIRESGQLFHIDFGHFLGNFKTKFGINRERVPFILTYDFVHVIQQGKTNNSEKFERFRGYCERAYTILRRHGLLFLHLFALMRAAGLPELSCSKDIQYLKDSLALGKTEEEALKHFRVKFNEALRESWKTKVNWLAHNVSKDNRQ
Chain of PI3Kδ (P27986 whole entry partner): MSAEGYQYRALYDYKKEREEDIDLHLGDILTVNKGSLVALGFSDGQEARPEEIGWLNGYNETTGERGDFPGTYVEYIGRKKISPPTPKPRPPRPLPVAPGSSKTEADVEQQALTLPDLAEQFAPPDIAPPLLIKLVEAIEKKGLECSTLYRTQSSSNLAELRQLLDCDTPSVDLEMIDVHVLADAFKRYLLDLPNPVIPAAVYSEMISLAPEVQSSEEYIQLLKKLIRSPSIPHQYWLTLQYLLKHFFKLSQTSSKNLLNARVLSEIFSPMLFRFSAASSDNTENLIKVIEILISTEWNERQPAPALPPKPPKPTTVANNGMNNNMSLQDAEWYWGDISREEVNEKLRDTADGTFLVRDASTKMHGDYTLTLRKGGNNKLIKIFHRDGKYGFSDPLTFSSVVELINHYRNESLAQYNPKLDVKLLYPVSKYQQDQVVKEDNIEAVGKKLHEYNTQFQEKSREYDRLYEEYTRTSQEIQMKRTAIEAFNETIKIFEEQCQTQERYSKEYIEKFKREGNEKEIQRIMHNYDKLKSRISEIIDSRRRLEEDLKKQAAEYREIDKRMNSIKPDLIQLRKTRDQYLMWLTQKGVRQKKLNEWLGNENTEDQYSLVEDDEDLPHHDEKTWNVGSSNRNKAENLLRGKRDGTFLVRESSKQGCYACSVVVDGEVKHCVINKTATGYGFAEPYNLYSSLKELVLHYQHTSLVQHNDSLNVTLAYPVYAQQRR
T2 sequence (P42338 whole entry): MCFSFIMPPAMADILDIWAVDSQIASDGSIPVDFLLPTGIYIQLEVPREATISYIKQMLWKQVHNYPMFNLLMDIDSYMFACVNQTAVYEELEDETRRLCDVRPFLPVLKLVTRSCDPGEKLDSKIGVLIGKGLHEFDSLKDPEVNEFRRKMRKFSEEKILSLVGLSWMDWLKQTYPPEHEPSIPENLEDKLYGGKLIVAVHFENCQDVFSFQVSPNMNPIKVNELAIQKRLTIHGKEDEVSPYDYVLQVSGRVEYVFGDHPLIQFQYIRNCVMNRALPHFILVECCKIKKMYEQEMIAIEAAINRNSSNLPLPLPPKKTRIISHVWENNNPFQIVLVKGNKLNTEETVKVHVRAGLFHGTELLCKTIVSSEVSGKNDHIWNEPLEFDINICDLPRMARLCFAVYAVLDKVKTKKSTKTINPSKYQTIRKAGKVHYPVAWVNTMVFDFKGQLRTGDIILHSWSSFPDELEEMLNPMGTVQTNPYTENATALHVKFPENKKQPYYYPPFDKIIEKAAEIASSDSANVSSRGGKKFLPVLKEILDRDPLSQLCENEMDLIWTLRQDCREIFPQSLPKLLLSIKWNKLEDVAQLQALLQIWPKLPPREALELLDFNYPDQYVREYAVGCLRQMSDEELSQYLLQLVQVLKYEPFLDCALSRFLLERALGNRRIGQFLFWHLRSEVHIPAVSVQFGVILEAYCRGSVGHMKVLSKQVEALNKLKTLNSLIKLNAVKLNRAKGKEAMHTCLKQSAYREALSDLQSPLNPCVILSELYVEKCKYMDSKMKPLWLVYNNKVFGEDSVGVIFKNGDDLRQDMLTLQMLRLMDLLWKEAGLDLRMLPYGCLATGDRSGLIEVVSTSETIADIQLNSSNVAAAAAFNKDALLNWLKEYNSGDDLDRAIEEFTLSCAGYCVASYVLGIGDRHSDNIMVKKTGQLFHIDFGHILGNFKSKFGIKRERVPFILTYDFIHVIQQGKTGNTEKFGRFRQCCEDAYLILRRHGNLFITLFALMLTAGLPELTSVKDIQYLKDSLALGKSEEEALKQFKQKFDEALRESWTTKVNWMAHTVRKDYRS
T2 sequence (P27986 whole entry partner): as the sequence (P27986 whole entry partner) above
T1 sequence (P42336 whole entry): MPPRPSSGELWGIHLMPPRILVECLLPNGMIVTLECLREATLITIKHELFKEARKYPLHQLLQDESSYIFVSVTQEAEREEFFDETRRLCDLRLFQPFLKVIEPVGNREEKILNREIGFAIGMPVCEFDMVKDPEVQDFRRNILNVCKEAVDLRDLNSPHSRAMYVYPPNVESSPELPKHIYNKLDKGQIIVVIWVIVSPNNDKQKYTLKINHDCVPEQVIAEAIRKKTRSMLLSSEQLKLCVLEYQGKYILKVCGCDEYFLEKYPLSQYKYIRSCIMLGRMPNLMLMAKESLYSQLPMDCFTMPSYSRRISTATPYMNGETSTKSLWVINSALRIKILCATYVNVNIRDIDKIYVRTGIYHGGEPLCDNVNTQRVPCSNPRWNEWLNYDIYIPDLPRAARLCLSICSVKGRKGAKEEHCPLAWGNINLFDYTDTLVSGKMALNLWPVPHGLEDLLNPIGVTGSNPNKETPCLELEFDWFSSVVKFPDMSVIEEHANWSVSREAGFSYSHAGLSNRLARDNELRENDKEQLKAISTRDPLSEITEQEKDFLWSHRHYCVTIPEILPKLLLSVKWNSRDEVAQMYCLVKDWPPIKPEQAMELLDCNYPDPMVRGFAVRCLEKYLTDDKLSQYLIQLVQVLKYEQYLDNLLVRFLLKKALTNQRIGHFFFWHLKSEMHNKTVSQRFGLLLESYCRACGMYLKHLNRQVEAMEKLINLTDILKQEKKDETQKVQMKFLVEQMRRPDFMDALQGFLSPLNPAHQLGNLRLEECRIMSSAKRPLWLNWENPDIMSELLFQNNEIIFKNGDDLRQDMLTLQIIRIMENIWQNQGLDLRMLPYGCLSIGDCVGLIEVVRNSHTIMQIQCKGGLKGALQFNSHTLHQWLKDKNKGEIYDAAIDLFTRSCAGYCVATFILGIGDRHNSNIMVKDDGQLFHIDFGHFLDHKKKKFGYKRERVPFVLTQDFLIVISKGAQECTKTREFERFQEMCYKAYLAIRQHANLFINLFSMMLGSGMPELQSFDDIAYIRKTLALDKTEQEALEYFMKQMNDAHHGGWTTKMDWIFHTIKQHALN
T1 sequence (P27986 whole entry partner): as the sequence (P27986 whole entry partner) above

| SMILES | melting point | Alpha/Delta Ratio (PI3Kα; 20 μM ATP) | remaining activity at 100 µM (PI3Kα; [2]) [%] | IC50 (PI3Kδ) [µM] | Beta/Delta Ratio (PI3Kβ) | IC50 (PI3Kβ) [µM] | remaining activity at 100 µM (PI3Kβ) [%] | EC50 [1] [nM] | IC50 (PI3Kα; 20 μM ATP) [µM] | Alpha IC50 column: percent activity remaining at 100 μM (PI3Kα; 20 μM ATP, 100 μM compound did not inhibit by at least 50%, 100 µM) [%] | remaining activity at 100 µM (PI3Kα; read-out: percent activity remaining at 100 μM) [%] |
| --- | --- | --- | --- | --- | --- | --- | --- | --- | --- | --- | --- |
| Cc1ccccc1-n1c(Cn2cnc3c(N)ncnc32)nc2cccc(Cl)c2c1=O | 262 to 266.5 °C |  |  |  |  |  |  |  |  |  |  |
| COc1cc2nc(Cn3cnc4c(N)ncnc43)n(-c3ccccc3Cl)c(=O)c2cc1OC [Compound D-001, 2-(6-Aminopurin-9-ylmethyl)-3-(2-chlorophenyl)-6,7-dimethoxy-3H-quinazolin-4-one] | 281.5 to 282.7 °C (dec.) | >1.5 | 83 | 68 | 0.66 | 45 |  |  |  |  |  |
| Nc1ncnc2c1ncn2Cc1nc2ccc(Br)cc2c(=O)n1-c1ccccc1Cl [Compound D-002, 2-(6-Aminopurin-o-ylmethyl)-6-bromo-3-(2-chlorophenyl)-3H-quinazolin-4-one] | 284.2 to 284.7 °C (dec.) | >2.3 | 88 | 44 | >2.3 |  | 78 |  |  |  |  |
| Nc1ncnc2c1ncn2Cc1nc2ccc(Cl)cc2c(=O)n1-c1ccccc1Cl [Compound D-004, 2-(6-Aminopurin-9-ylmethyl)-6-chloro-3-(2-chlorophenyl)-3H-quinazolin-4-one] | 294.5 to 294.8 °C (dec.) | >2 | 93 | 64 | >1.6 |  | 89 |  |  |  |  |
| Nc1ncnc2c1ncn2Cc1nc2c(Cl)cccc2c(=O)n1-c1ccccc1Cl [Compound D-008, 2-(6-Aminopurin-9-ylmethyl)-8-chloro-3-(2-chlorophenyl)-3H-quinazolin-4-one] | 273.3 to 273.5 °C | >85 | 82 | 1.2 | 57 | 68 |  | 1000 |  |  |  |
| COc1cc2nc(CSc3ncnc4[nH]cnc34)n(-c3ccccc3Cl)c(=O)c2cc1OC [Compound D-016, 3-(2-Chlorophenyl)-6,7-dimethoxy-2-(9H-purin-6-ylsulfanylmethyl)-3H-quinazolin-4-one] | 160 to 180 °C (dec.) | >2.5 | 91 | 40 | >3 |  | 81 |  |  |  |  |
| O=c1c2cc(Br)ccc2nc(CSc2ncnc3[nH]cnc23)n1-c1ccccc1Cl [Compound D-017, 6-Bromo-3-(2-chlorophenyl)-2-(9H-purin-6-ylsulfanylmethyl)-3H-quinazolin-4-one] | 212 to 242 °C (dec.) | >8 | 89 | 12 | >8 |  | 108 |  |  |  |  |
| O=c1c2cc(Cl)ccc2nc(CSc2ncnc3[nH]cnc23)n1-c1ccccc1Cl [Compound D-020, 6-Chloro-3-(2-chlorophenyl)-2-(9H-purin-6-ylsulfanylmethyl)-3H-quinazolin-4-one] | 237.1 to 238.2 °C (dec.) | >53 | 69 | 1.9 | >53 |  | 69 |  |  |  |  |
| O=c1c2ccc([N+](=O)[O-])cc2nc(CSc2ncnc3[nH]cnc23)n1-c1ccccc1Cl [Compound D-023, 3-(2-Chlorophenyl)-7-nitro-2-(9H-purin-6-ylsulfanylmethyl)-3H-quinazolin-4-one] | 218 to 218.3 °C (dec.) | >4 | 83 | 26 | >3.9 |  | 91 |  |  |  |  |
| COc1ccccc1-n1c(Cn2cnc3c(N)ncnc32)nc2cccc(Cl)c2c1=O [Compound D-033, 2-(6-Aminopurin-9-ylmethyl)-5-chloro-3-(2-methoxyphenyl)-3H-quinazolin-4-one] | 257 to 257.1 °C |  |  |  |  |  |  |  |  |  |  |
| COc1cccc(-n2c(CSc3ncnc4[nH]cnc34)nc3ccccc3c2=O)c1 [Compound D-040, 3-(3-methoxyphenyl)-2-(9H-purin-6-ylsulfanylmethyl)-3H-quinazolin-4-one] |  | >61 | 77 | 1.7 | >61 |  | 64 |  |  |  |  |
| O=c1c2ccccc2nc(CSc2ncnc3[nH]cnc23)n1-c1cccc(Cl)c1 [Compound D-041, 3-(3-chlorophenyl)-2-(9H-purin-6-ylsulfanylmethyl)-3H-quinazolin-4-one] |  | >25 | 67 | 4 | >25 |  | 65 |  |  |  |  |
| O=c1c2ccccc2nc(CSc2ncnc3[nH]cnc23)n1-c1ccncc1 [Compound D-042, 2-(9H-purin-6-ylsulfanylmethyl)-3-pyridin-4-yl-3H-quinazolin-4-one] |  | >32 | 70 | 3 | 8 | 25 |  |  |  |  |  |
| CC(=O)O.CN1CCN(n2c(CSc3ncnc4[nH]cnc34)nc3ccccc3c2=O)CC1 [Compound D-044, 3-(4-methylpiperazin-1-yl)-2-(9H-purin-6-ylsulfanylmethyl)-3H-quinazolin-4-one, acetate salt] |  | 25 |  | 4.2 | 15 | 61 |  |  | 105 |  |  |
| COc1ccccc1-n1c(CSc2ncnc3[nH]cnc23)nc2ccccc2c1=O [Compound D-046, 3-(2-methoxyphenyl)-2-(9H-purin-6-ylsulfanylmethyl)-3H-quinazolin-4-one] |  | >11 |  |  | 11 |  |  |  |  | 64 |  |
| CCCCn1c(Cn2cnc3c(N)ncnc32)nc2ccccc2c1=O [Compound D-050, 2-(6-aminopurin-9-ylmethyl)-3-butyl-3H-quinazolin-4-one] |  | >63 | 99 | 1.6 | 26 | 41 |  |  |  |  |  |
| CC(=O)O.Nc1ncnc2c1ncn2Cc1nc2ccccc2c(=O)n1N1CCOCC1 [Compound D-051, 2-(6-aminopurin-9-ylmethyl)-3-morpholin-4-yl-3H-quinazolin-4-one, acetate salt] |  | >31 |  | 3.3 | >31 |  | 57 |  |  |  | 89 |
| O=c1c2ccccc2nc(CSc2ncnc3[nH]cnc23)n1-c1ccc(Cl)cc1 [Compound D-052, 3-(4-chlorophenyl)-2-(9H-purin-6-ylsulfanylmethyl)-3H-quinazolin-4-one] |  | 0.09 |  | 8 | >13 |  | 69 |  | 0.7 |  |  |
